Measurements published in paper PMC10287695, “Non-covalent inhibitors of thioredoxin glutathione reductase with schistosomicidal activity in vivo” (Nature Communications, 2023).
Where two headings read alike, the source gives them in different places. Marks after values point to notes of the source that are not given here.

Columns and labels:
[1] = target: T1, S. mansoni TGR (Schistosoma mansoni, UniProt Q962Y6); assay: S. mansoni TGR enzyme inhibition (DTNB reduction); assay type: biochemical; conditions: for IC50: 15 min preincubation (enzyme + 100 µM NADPH + compound); for inhibition at 15 µM: compound 15 µM; for inhibition at 15 µM / inhibition at 30 µM / inhibition at 66.7 µM: read-out: % inhibition; for inhibition at 30 µM: compound 30 µM; for inhibition at 66.7 µM: compound 66.7 µM; for S. mansoni TGR inhibition (%) at 66.7 µM: 6 h preincubation (enzyme + 100 µM NADPH + compound)
T1 construct: made in house
T1 sequence (Q962Y6 1-598): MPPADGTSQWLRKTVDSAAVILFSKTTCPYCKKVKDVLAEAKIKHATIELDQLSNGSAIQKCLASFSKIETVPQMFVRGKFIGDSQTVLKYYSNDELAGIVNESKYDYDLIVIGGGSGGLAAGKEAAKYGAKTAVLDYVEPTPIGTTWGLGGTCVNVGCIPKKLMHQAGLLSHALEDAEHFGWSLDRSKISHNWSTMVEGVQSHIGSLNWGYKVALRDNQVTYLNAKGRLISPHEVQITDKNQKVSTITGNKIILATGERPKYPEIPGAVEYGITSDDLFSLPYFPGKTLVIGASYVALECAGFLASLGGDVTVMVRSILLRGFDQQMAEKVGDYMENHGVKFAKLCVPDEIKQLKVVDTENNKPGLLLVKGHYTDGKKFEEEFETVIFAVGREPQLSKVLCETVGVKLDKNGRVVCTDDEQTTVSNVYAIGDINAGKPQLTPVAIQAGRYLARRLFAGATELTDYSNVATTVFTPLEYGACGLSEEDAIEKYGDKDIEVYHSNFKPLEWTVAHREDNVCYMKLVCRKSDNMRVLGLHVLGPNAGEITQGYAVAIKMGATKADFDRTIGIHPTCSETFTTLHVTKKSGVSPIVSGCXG

[2] = target: T2, Human TrxR1 (Homo sapiens, UniProt Q16881); assay: Human TrxR1 enzyme inhibition (DTNB reduction); assay type: biochemical; conditions: for IC50: 15 min preincubation (enzyme + 100 µM NADPH + compound), read-out: Human TrxR1 IC50; for Human TrxR1 IC50 (µM) or inhibition (%) at 66.7 µM: inhibition: 6 h preincubation
T2 construct: made in house
T2 sequence (Q16881 1-499 isoform Q16881-5): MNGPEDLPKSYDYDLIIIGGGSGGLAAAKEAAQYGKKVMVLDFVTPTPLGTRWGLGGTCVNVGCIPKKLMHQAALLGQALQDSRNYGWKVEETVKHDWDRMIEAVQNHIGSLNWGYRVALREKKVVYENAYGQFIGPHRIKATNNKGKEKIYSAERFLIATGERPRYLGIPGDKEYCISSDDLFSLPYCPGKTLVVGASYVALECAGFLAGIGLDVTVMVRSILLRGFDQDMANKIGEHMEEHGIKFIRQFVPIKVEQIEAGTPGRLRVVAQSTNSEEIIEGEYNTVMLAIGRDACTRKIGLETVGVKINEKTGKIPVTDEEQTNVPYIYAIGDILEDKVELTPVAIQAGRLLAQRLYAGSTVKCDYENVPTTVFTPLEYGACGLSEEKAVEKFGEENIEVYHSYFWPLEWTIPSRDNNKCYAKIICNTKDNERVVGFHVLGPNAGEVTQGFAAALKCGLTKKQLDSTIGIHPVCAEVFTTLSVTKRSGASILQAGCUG

[3] = test system: S. mansoni newly transformed schistosomula (NTS); assay: Schistosomicidal activity ex vivo, NTS (Cell Titer Glo); assay type: cell-based; conditions: for LD50 ex vivo S. mansoni NTS: 24 h exposure, Cell TiterGlo
Method in brief: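 NTS (240/well) in M199 with 5.5 mM D-glucose and 5% heat-inactivated FBS exposed to compounds in triplicate at <1% DMSO, 37 °C, 5% CO2. Viability from worm ATP by Cell Titer Glo at 24 or 72 h, as % of DMSO control; 5 µM AF positive control.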

[4] = test system: Vero cells; assay: Cytotoxicity in mammalian cells (Cell Titer Glo); assay type: cell-based; conditions: for EC50: Chlorocebus sabaeus, Vero, estimate from raw data, read-out: EC50 viability of Vero cells
Description: Following overnight incubation, formulated DMSO-compound stock solutions were diluted with DMEM at <1% DMSO final concentrations. […] Vero cells treated similarly with different concentrations of PZQ, MZM and AF (Cayman Chemicals) were used as positive controls.

Row | SMILES | IC50 [1] [µM] | inhibition at 15 µM ([1]; TGR, 15 minutes pre-incubation) [%] | inhibition at 30 µM ([1]; TGR, 15 minutes pre-incubation) [%] | inhibition at 66.7 µM ([1]; TGR, 15 minutes pre-incubation) [%] | IC50 [2] [µM] | LD50 ex vivo S. mansoni NTS [3] [µM] | viability at 1 µM ([3]; Schistosoma mansoni) [%] | viability at 5 µM ([3]; Schistosoma mansoni) [%] | viability at 10 µM ([3]; Schistosoma mansoni) [%] | viability at 30 µM ([3]; Schistosoma mansoni) [%] | LD50 ex vivo VERO ([4]; African green monkey, 24 h) | EC50 [4] [µM] | S. mansoni TGR inhibition (%) at 66.7 µM [1] | Human TrxR1 IC50 (µM) or inhibition (%) at 66.7 µM: inhibition [2] | viability at 20 µM ([3]; Schistosoma mansoni) [%] | LD50 ex vivo VERO ([4]; 24-hour exposure) | other results
1 | C[C@@H]1[C@H]2C[C@@H](C[C@H]1NCc1nc3ccccc3n1C1CCCCCC1)C2(C)C [Compound 8] | 10.3 ± 2.01 | 57.4 | 62.9 | 78.8 | 4.9 ± 1.72 | 9.4 ± 0.74 | 91.9 | 84.8 | 33.1 | 11.9 | 32.7 ± 2.99 µM | > 50 | – | – | – | – | inhibition at 2.5 µM ([2]; hsTrxR, 15 minutes pre-incubation, compound 2.5 µM): 37.2%; inhibition at 5 µM ([2]; hsTrxR, 15 minutes pre-incubation, compound 5 µM): 49.7%; inhibition at 10 µM ([2]; hsTrxR, 15 minutes pre-incubation, compound 10 µM): 61.6%; viability at 0.1 µM ([3]; Schistosoma mansoni): 99.8%; viability at 15 µM ([3]; Schistosoma mansoni): 28.2%; viability at 50 µM ([3]; Schistosoma mansoni): 1.87%; viability at 100 µM ([3]; Schistosoma mansoni): 0.303%
2 | CC1C(NCc2cn(C3OCC(O)C(O)C3O)c3ccccc23)CC2CC1C2(C)C (stereo not shown) [Compound 9] | 57.5 ± 2.46 | 32.6 | 49.3 | 68.2 | 70.5 ± 11.4 | 11.14 ± 1.04 | – | – | – | – | >50^a µM | > 200 | – | – | – | – | inhibition at 1 µM ([1]; TGR, 15 minutes pre-incubation, compound 1 µM): 3.4%; inhibition at 5 µM ([1]; TGR, 15 minutes pre-incubation, compound 5 µM): 11.8%; inhibition at 15 µM ([2]; hsTrxR, 15 minutes pre-incubation, compound 15 µM): 5.09%; inhibition at 30 µM ([2]; hsTrxR, 15 minutes pre-incubation, compound 30 µM): 8.68%; inhibition at 66.7 µM ([2]; hsTrxR, 15 minutes pre-incubation, compound 66.7 µM, read-out: % inhibition): 14.5%
3 | C[C@@H]1N=C(c2ccccc2Cl)c2cc([N+](=O)[O-])ccc2NC1=O [MZM, meclonazepam, reference compound] | – | – | – | – | – | 13.7 ± 0.87 | 87.2 | 64.8 | 57.8 | 35.2 | – | – | n.i.^e | n.i.^e | 43.9 | >50^a µM | viability at 0.5 µM ([3]; Schistosoma mansoni): 93.3%
4 | O=C(C1CCCCC1)N1CC(=O)N2CCc3ccccc3C2C1 (stereo not shown) [PZQ, praziquantel] | – | – | – | – | – | 27.1 ± 2.27 | – | – | – | – | – | – | n.i.^e | n.i.^e | 58.2 | >50^a µM | viability at 0.5 µM ([3]; Schistosoma mansoni, S. mansoni NTS, Conc. 0.5 µM, read-out: % viability): 94.3%; viability at 1 µM ([3]; Schistosoma mansoni, S. mansoni NTS, Conc. 1 µM, read-out: % viability): 91.8%; viability at 5 µM ([3]; Schistosoma mansoni, S. mansoni NTS, Conc. 5 µM, read-out: % viability): 85.6%; viability at 10 µM ([3]; Schistosoma mansoni, S. mansoni NTS, Conc. 10 µM, read-out: % viability): 71.9%; viability at 30 µM ([3]; Schistosoma mansoni, S. mansoni NTS, Conc. 30 µM, read-out: % viability): 35.8%
